How the values were obtained:
[1] = test system: MEK/ERK signaling system in PC-12 cells; test: MEK-ERK signaling system in neural model cells with MEK inhibitor (western blot); format: cell-based, rat; settings: UO126 10 μM added 30 minutes before 30 μg/mL ceramide-containing matter
Procedure: An inhibitor of MEK that was the upstream kinase of extracellular signal-regulated kinase (ERK1/2) was used to make an estimation of the effect of the ceramide-containing matter on the MEK/ERK signaling system in PC-12 cells. The PC-12 cells were cultured in a D-MEM culture medium containing 5% bovine serum and 5% horse serum. The MEK inhibitor UO126 was dissolved in dimethyl-sulfoxide (DMSO), and the resulting solution was added to the cells in such an amount as to give 10 μM, and 30 minutes after that, the ceramide-containing matter dissolved in DMSO was added to the cells in such an amount as to give 30 μg/mL for 10-minute culture. After culture, the cells were collected for estimation of the phosphorylation ERK1/2 (phospho ERK1/2) level important for memory formation by means of the western blot method using anti-phospho ERK1/2 antibody and/or anti-total ERK1/2 antibody. Note here that a sample treated with nobiletin (30 μM) was used as a positive control.

[2] = test system: memory impairment caused by NMDA receptor blocker MK-801; test: Passive avoidance test in MK-801 dementia model mice; format: in vivo; settings: MK-801 alone, 0.2 mg/kg body weight subcutaneous, DDY mice
Procedure: In this example, passive avoidance tests using dementia model mice having MK-801 administered thereto were carried out for estimation of effects of the ceramide-containing matter on memory impairments.
More specifically, 7 week old male DDY mice (available from Japan SLC, Inc.) were pre-fed for experimentation. The ceramide-containing matter suspended in an aqueous solution of 0.5% carboxymethyl cellulose sodium (CMC) was orally administrated to the mice once per day in a dose of 100 mg/kg body weight or 500 mg/kg body weight for six days. At the 7th and 8th days from the onset of administration, training and retention trials of passive avoidance testing were carried out. Ninety (90) minutes before the training trial of passive avoidance testing, 100 mg/kg body weight or 500 mg/kg body weight of the ceramide-containing matter or an aqueous solution of solvent 0.5% CMC were orally administrated to the mice, followed by subcutaneous administration of non-competitive NMDA receptor blocker MK-801 (0.2 mg/kg body weight) or a physiological saline solution 60-minute later. Thirty (30) minutes after that, training trial of passive avoidance testing was carried out, and after the elapse of 24 hours, retention testing was carried out. […]

Structure (SMILES): N#CC(=C(/N)Sc1ccccc1N)/C(C#N)=C(/N)Sc1ccccc1N [UO126]
- rise of ERK1/2 phosphorylation level caused by the ceramide-containing matter, after MEK inhibitor pretreatment [1]: kept low

Structure (SMILES): C[C@]12N[C@H](Cc3ccccc31)c1ccccc12 [MK-801]
- reaction latency in retention trial versus solvent control group [2]: significantly lower in the reaction latency

Source: patent publication US20230226133A1, “METHOD FOR EXTRACTING CERAMIDE-CONTAINING MATERIAL OR CERAMIDE FROM WHOLE APPLES AND/OR APPLE JUICE EXTRACTION RESIDUE, AND COMPOSITION INCLUDING SAID CERAMIDE” (priority 2020, published 2023)
